Experimental data published in PMC6185904 (Nature Communications, 2018).

Assays:
[1] = target: T1, NhaA (sodium/proton antiporter), dimeric NhaA-GFP (Escherichia coli, UniProt P13738); assay: FSEC-TS titration of dimer stabilization, nonlinear regression; assay type: binding; details: pH 7.5, 150 mM NaCl, 0.03% DDM plus 1% beta-OG, heated at 47 °C; 19 CL concentrations; dimer interface site; read-out: CL dependent oligomerization concentration (midpoint)
T1 construct: full-length, C-terminal GFP-8His fusion (pWaldo GFPd), expressed in E. coli Lemo21(DE3), purified in DDM; homodimer
T1 sequence (P13738 1-388): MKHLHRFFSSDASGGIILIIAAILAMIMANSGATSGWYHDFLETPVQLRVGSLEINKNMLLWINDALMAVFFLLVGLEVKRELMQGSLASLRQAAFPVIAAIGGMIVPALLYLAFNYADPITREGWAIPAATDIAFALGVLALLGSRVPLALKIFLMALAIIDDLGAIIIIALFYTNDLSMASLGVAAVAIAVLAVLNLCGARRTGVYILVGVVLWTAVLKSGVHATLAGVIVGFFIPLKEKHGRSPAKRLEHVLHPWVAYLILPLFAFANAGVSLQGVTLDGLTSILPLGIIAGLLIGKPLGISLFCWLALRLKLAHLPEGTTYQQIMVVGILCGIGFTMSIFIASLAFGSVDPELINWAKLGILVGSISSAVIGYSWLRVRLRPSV

[2] = target: T1, NhaA (sodium/proton antiporter), dimeric NhaA-GFP; assay: FSEC-TS thermal shift, purified NhaA-GFP; assay type: binding; details: purified in DDM; dimer
[3] = target: T2, human CMP–sialic acid transporter SLC35A1 (human CMP–Sia) (Homo sapiens, UniProt P78382); assay: GFP-TS titration, one-site fit, DDM-solubilized membranes (also ITC on purified protein)
T2 construct: full-length, GFP-8His fusion (pDDGFP-2), expressed in S. cerevisiae FGY217; DDM-solubilized membranes or purified
T2 sequence (P78382 1-337): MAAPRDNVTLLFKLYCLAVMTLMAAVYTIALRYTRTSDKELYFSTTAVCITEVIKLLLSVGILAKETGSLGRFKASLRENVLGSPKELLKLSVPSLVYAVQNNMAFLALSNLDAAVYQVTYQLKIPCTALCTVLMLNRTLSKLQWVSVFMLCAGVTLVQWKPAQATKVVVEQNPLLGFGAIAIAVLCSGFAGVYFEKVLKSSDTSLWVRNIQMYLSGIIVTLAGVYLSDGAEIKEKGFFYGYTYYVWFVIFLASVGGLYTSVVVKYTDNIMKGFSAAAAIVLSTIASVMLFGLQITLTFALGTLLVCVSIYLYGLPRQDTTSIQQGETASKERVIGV
Text: GFP-TS titration, one-site fit, DDM-solubilized membranes (also ITC on purified protein) on human CMP–sialic acid transporter SLC35A1 (human CMP–Sia) | we used the GFP-TS to determine CMP binding affinities (Kd) for the plant and human

[4] = target: T3, putative Zea mays CMP–sialic acid transporter (Z. mays CMP–Sia) (Zea mays, UniProt B4FZ94); assay: GFP-TS thermostabilization, DDM-solubilized membranes; assay type: binding; details: 5 mM ligand, heated at 54 °C, pH 7.5, 150 mM NaCl, DDM plus 1% beta-OG
T3 construct: gene ZEAMMB73_Zm00001d046060; full-length synthesized clone, GFP-8His fusion (pDDGFP-2), expressed in S. cerevisiae FGY217; DDM-solubilized membranes or purified
T3 sequence (B4FZ94 1-322): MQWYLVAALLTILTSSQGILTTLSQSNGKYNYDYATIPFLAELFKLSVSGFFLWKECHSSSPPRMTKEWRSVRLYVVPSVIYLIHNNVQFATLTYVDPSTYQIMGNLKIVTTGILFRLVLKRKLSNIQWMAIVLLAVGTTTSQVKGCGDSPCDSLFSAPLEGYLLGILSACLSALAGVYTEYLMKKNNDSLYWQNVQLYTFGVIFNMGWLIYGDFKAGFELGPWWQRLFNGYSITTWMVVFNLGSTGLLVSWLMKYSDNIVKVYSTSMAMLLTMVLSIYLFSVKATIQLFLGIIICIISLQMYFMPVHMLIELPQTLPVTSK

[5] = target: T2, human CMP–sialic acid transporter SLC35A1 (human CMP–Sia); assay: as above; assay type: binding; details: 5 mM ligand, heated at 42 °C, pH 7.5, 150 mM NaCl, DDM plus 1% beta-OG
human NHA2 = target: T4, human NHA2 (Homo sapiens, UniProt Q86UD5); assay: GFP-TS lipid screen, purified GFP fusion; assay type: binding; details: 3 mg/mL lipid, heated at apparent Tm + 5 °C, pH 7.5, 150 mM NaCl, DDM plus 1% beta-OG
T4 construct: gene SLC9B2; GFP-8His fusion (pDDGFP-2), expressed in S. cerevisiae FGY217, purified in DDM
T4 sequence (Q86UD5 1-537): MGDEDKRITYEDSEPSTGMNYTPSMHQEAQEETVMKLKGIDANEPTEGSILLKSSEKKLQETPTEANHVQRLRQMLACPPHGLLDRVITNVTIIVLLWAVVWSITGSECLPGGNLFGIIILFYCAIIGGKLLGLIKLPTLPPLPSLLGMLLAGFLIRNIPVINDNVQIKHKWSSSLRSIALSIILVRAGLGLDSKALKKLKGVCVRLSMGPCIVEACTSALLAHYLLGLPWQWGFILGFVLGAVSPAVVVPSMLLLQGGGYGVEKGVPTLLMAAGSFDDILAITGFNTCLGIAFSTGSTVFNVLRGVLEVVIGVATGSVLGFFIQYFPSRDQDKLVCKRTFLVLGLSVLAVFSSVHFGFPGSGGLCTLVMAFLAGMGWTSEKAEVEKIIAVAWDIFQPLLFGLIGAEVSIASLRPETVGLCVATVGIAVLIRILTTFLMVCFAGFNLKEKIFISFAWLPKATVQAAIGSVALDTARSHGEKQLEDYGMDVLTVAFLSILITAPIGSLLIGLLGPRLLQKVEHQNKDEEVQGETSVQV

CCCCCCCC/C=C\CCCCCCCC(=O)OC[C@H](COP(=O)(O)OCC(O)COP(=O)(O)OC[C@@H](COC(=O)CCCCCCC/C=C\CCCCCCCC)OC(=O)CCCCCCC/C=C\CCCCCCCC)OC(=O)CCCCCCC/C=C\CCCCCCCC (stereo partly drawn) [CL, cardiolipin (18:1)]
EC50 [1]: 1400 µM
apparent Tm without to with cardiolipin [2]: 42 to 53 °C

Nc1ccn([C@@H]2O[C@H](COP(=O)(O)O)[C@@H](O)[C@H]2O)c(=O)n1 [CMP]
Kd [3]: 19.5 ± 3.8 µM

CC(=O)N[C@H]1[C@H]([C@H](O)[C@H](O)CO)O[C@](OP(=O)(O)OC[C@H]2O[C@@H](n3ccc(N)nc3=O)[C@H](O)[C@@H]2O)(C(=O)O)C[C@@H]1O [CMP–sialic acid]
supernatant fluorescence after heating [4]: higher thermostablization for CMP–sialic acid as compared to the addition of sialic acid only
supernatant fluorescence after heating [5]: almost identical stabilization profile for substrates was observed for the human CMP–sialic acid transporter

CCCCCCCC/C=C\CCCCCCCC(=O)OC[C@H](COP(=O)(O)OCC(O)CO)OC(=O)CCCCCCC/C=C\CCCCCCCC (stereo partly drawn) [DOPG]
supernatant fluorescence after heating (human NHA2): human NHA2, where the addition of PG was clearly stabilizing
